Experimental data taken from patent US9802895B2, “Indole and benzimidazolecarboxamides as insecticides and acaricides” (BAYER CROPSCIENCE AKTIENGESELLSCHAFT, priority 2014, dated 2017).

What was measured:
[1] = tested on: adult houseflies (Musca domestica); assay: Musca domestica test (MUSCDO); format: in vivo; conditions: 100 ppm, after 2 days
Protocol: Musca domestica Test (MUSCDO) Solvent: dimethyl sulphoxide To produce a suitable active compound formulation, 10 mg of active compound are mixed with 0.5 ml of dimethyl sulphoxide, and the concentrate is diluted with water to the desired concentration. Vessels containing a sponge treated with sugar solution and the active compound preparation of the desired concentration are populated with 10 adult houseflies (Musca domestica). After 2 days, the kill in % is determined. 100% means that all of the flies have been killed; 0% means that none of the flies have been killed.

[2] = tested on: engorged adult female cattle ticks (Boophilus microplus); assay: Boophilus microplus injection test (BOOPMI inj); format: in vivo; conditions: assessed after 7 days
Protocol: Boophilus microplus Injection Test (BOOPMI inj) Solvent: dimethyl sulphoxide To produce a suitable active compound formulation, 10 mg of active compound are mixed with 0.5 ml of solvent and the concentrate is diluted with solvent to the desired concentration. 1 μl of the active compound solution is injected into the abdomen of 5 engorged adult female cattle ticks (Boophilus microplus). The animals are transferred into dishes and kept in a climate-controlled room. The efficacy is assessed after 7 days by laying of fertile eggs. Eggs which are not visibly fertile are stored in a climate-controlled cabinet until the larvae hatch after about 42 days. An efficacy of 100% means that none of the ticks has laid any fertile eggs; 0% means that all the eggs are fertile.

[3] = tested on: larvae of the mustard beetle (Phaedon cochleariae); assay: Phaedon cochleariae spray test (PHAECO); format: in vivo; conditions: 100 g/ha, after 7 days
Protocol: Phaedon cochleariae—Spray Test (PHAECO)
(§1) Solvent: 78.0 parts by weight of acetone • • 1.5 parts by weight of dimethylformamide
(§2) Emulsifier: alkylaryl polyglycol ether
(§3) To produce a suitable active compound formulation, 1 part by weight of active compound is dissolved using the specified parts by weight of solvent and made up with water containing an emulsifier concentration of 1000 ppm until the desired concentration is attained. To produce further test concentrations, the preparation is diluted with emulsifier-containing water.
After 7 days, the efficacy in % is determined. 100% means that all the beetle larvae have been killed; 0% means that no beetle larvae have been killed.

[4] = tested on: greenhouse red spider mite (Tetranychus urticae); assay: Tetranychus urticae spray test, OP-resistant (TETRUR); format: in vivo; conditions: for efficacy: 100 g/ha, spray, after 6 days; for % efficacy: TETRUR, 6 dat
Protocol: Tetranychus urticae—Spray Test, OP-Resistant (TETRUR)
as §1, §2, §3
Discs of bean leaves (Phaseolus vulgaris) infested by all stages of the greenhouse red spider mite (Tetranychus urticae) are sprayed with an active compound formulation of the desired concentration.
After 6 days, the efficacy in % is determined 100% means that all the spider mites have been killed; 0% means that none of the spider mites have been killed.
Tetranychus urticae—Spray Test; OP-Resistant (TETRUR)
After the desired period of time, the efficacy in % is determined 100% means that all the spider mites have been killed; 0% means that none of the spider mites have been killed.

[5] = tested on: adult cat fleas (Ctenocephalides felis); assay: Ctenocephalides felis oral test (CTECFE); format: in vivo; conditions: 100 ppm, oral in cattle blood, after 2 days
Protocol: Ctenocephalides felis-Oral Test ([…]) Solvent: dimethyl sulphoxide To produce a suitable active compound formulation, 10 mg of active compound are mixed with 0.5 ml of dimethyl sulphoxide. Dilution with citrated cattle blood gives the desired concentration. About 20 unfed adult cat fleas (Ctenocephalides felis) are placed into a chamber which is closed at the top and bottom with gauze. A metal cylinder whose bottom end is closed with parafilm is placed onto the chamber. The cylinder contains the blood/active compound preparation, which can be imbibed by the fleas through the parafilm membrane. After 2 days, the kill in % is determined 100% means that all of the fleas have been killed; 0% means that none of the fleas have been killed.

[6] = tested on: caterpillars of the armyworm (Spodoptera frugiperda); assay: Spodoptera frugiperda spray test (SPODFR); format: in vivo; conditions: for efficacy: 100 g/ha, spray, after 7 days; for % efficacy: SPODFR, 7 dat
Protocol: Spodoptera frugiperda—Spray Test (SPODFR) Solvent: 78.0 parts by weight of acetone • • 1.5 parts by weight of dimethylformamide Emulsifier: alkylaryl polyglycol ether To produce a suitable active compound formulation, 1 part by weight of active compound is dissolved using the specified parts by weight of solvent and made up with water containing an emulsifier concentration of 1000 ppm until the desired concentration is attained. To produce further test concentrations, the preparation is diluted with emulsifier-containing water. Leaf discs of maize (Zea mays) are sprayed with an active compound formulation of the desired concentration and, after drying, populated with caterpillars of the armyworm (Spodoptera frugiperda). After 7 days, the efficacy in % is determined 100% means that all the caterpillars have been killed; 0% means that no caterpillars have been killed. Spodoptera frugiperda—Spray Test (SPODFR) Solvent: 78.0 parts by weight of acetone • • 1.5 parts by weight of dimethylformamide Emulsifier: alkylaryl polyglycol ether To produce a suitable active compound formulation, 1 part by weight of active compound is dissolved using the specified parts by weight of solvent and made up with water containing an emulsifier concentration of 1000 ppm until the desired concentration is attained. To produce further test concentrations, the preparation is diluted with emulsifier-containing water. Leaf discs of maize (Zea mays) are sprayed with an active compound formulation of the desired concentration and, after drying, populated with caterpillars of the armyworm (Spodoptera frugiperda). After the desired period of time, the efficacy in % is determined. 100% means that all the caterpillars have been killed; 0% means that no caterpillars have been killed.

[7] = log P by HPLC (EEC directive 79/831 Annex V.A8); format: physicochemical; conditions: HPLC, reversed-phase column (C18), 43° C., acidic range pH 2.7
Protocol: a) The determination of the M^+ by LC-MS in the acidic range is effected at pH 2.7, acetonitrile (contains 0.1% formic acid) and water as eluents; linear gradient from 10% acetonitrile to 95% acetonitrile, instrument: Agilent 1100 LC system, Agilent MSD system, HTS PAL. The log P values reported in the tables and Preparation Examples above were determined in accordance with EEC directive 79/831 Annex V.A8 by HPLC (High Performance Liquid Chromatography) using a reversed-phase column (C18). Temperature 43° C. The calibration is effected with unbranched alkan-2-ones (having 3 to 16 carbon atoms), for which the logP values are known.

[8] = tested on: L1 larvae of the Australian sheep blowfly (Lucilia cuprina); assay: Lucilia cuprina test (LUCICU); format: in vivo; conditions: 100 ppm, after 2 days
Protocol: Lucilia cuprina Test (LUCICU) Solvent: dimethyl sulphoxide To produce a suitable active compound formulation, 10 mg of active compound are mixed with 0.5 ml of dimethyl sulphoxide, and the concentrate is diluted with water to the desired concentration. About 20 L1 larvae of the Australian sheep blowfly (Lucilia cuprina) are transferred into a test vessel containing minced horsemeat and the active compound preparation of the desired concentration. After 2 days, the kill in % is determined 100% means that all the larvae have been killed; 0% means that none of the larvae have been killed.

[9] = tested on: L2 larvae of the banded cucumber beetle (Diabrotica balteata); assay: Diabrotica balteata drench test (DIABBA); format: in vivo; conditions: 8 dat
Protocol: Diabrotica balteata—Drench Test (DIABBA) Solvent: 7 parts by weight of dimethylformamide Emulsifier: 2 parts by weight of alkylaryl polyglycol ether To produce a suitable active compound formulation, 1 part by weight of active compound is mixed with the specified amounts of solvent and emulsifier, and the concentrate is diluted with water to the desired concentration, it being necessary to include the volume of soil which is drenched in the calculation. It should be ensured that a concentration of 40 ppm of emulsifier in the soil is not exceeded. To produce further test concentrations, water is used for dilution. […] After one day, 25 L2 larvae of the banded cucumber beetle (Diabrotica balteata) are added. After 8 days, the efficacy in % is determined 100% means that all 5 plants have germinated and grown; 0% means that none of the plants has emerged.

Row | Structure (SMILES) | efficacy (kill in %) [1] | efficacy (laying of fertile eggs) [2] | efficacy [3] | efficacy [4] | efficacy (kill in %) [5] | efficacy [6] | % efficacy ([6]; 0.8 g/ha) | % efficacy ([6]; 4 g/ha) | log P [7] | efficacy (kill in %) [8] | % efficacy ([9]; 4 ppm) | % efficacy ([9]; 20 ppm) | % efficacy ([4]; 4 g/ha) | % efficacy ([4]; 20 g/ha)
1 | CCn1c(C(=O)NC(c2ccc(F)c(C(F)(F)F)c2)C(F)(F)F)cc2cc(C(=O)NC3(C(N)=S)CC3)c(Cl)cc21 (centres unmarked) [I-03] | 100% | 100% | 100% | 90% | 100% | 100% | 100% | 100% | 3.70 | 100% |  |  |  | 
2 | CCn1c(C(=O)NC(c2ccc(F)c(Cl)c2)C(F)(F)F)cc2cc(C(=O)NC3(C(N)=S)CC3)c(Cl)cc21 (centres unmarked) [I-04] | 100% | 100% | 100% | 100% | 100% | 100% | 100% | 100% | 3.57 | 100% |  |  |  | 
3 | CCn1c(C(=O)NC(c2cc(Cl)c(Cl)c(Cl)c2)C(F)(F)F)cc2cc(C(=O)NC3(C(N)=S)CC3)c(Cl)cc21 (centres unmarked) [I-05] | 100% | 100% | 100% | 90% | 100% | 100% |  |  | 4.33 | 100% |  |  |  | 
4 | CCn1c(C(=O)NC(c2ccc(Cl)c(C(F)(F)F)c2)C(F)(F)F)cc2cc(C(=O)NC3(C(N)=S)CC3)c(Cl)cc21 (centres unmarked) [I-07] | 100% | 100% | 100% | 100% | 100% | 100% | 67% | 100% | 3.96 | 100% |  |  |  | 
5 | CCn1c(C(=O)NC(c2cc(F)c(Cl)c(Cl)c2)C(F)(F)F)cc2cc(C(=O)NC3(C(N)=S)CC3)c(Cl)cc21 (centres unmarked) [I-09] | 100% | 100% | 100% | 100% | 100% | 100% |  |  | 4.02 | 100% |  |  |  | 
6 | CCn1c(C(=O)NC(c2cc(F)cc(C(F)(F)F)c2)C(F)(F)F)cc2cc(C(=O)NC3(C(N)=S)CC3)c(Cl)cc21 (centres unmarked) [I-10] | 100% | 100% | 100% | 100% | 100% | 100% | 100% | 100% | 3.81 | 100% |  |  |  | 
7 | CCn1c(C(=O)NC(c2ccc(Cl)c(C(F)(F)F)c2)C(F)(F)F)cc2cc(C(=O)NC3(C(N)=S)CC3)c(C)cc21 (centres unmarked) [I-13] | 100% | 100% | 100% | 100% | 100% | 100% |  |  | 3.89 | 100% |  |  |  | 
8 | CCn1c(C(=O)NC(c2cc(Cl)cc(C(F)(F)F)c2)C(F)(F)F)cc2cc(C(=O)NC3(C(N)=S)CC3)c(Cl)cc21 (centres unmarked) [I-22] | 100% | 100% | 100% | 100% | 100% | 100% | 100% | 100% | 4.11 | 100% | 50% | 100% | 100% | 100%
9 | CCn1c(C(=O)NC(c2cc(Cl)cc(Cl)c2)C(F)F)cc2cc(C(=O)NC3(C(N)=S)CC3)c(Cl)cc21 (centres unmarked) [I-24] | 80% | 100% | 100% | 100% | 100% | 100% |  |  | 3.65 | 100% |  |  |  | 
10 | CCn1c(C(=O)NC(c2cc(Cl)c(F)c(F)c2F)C(F)(F)F)cc2cc(C(=O)NC3(C(N)=S)CC3)c(Cl)cc21 (centres unmarked) [I-26] | 100% | 100% | 100% | 100% | 100% | 100% |  |  | 3.99 | 100% |  |  |  | 
11 | CCn1c(C(=O)NC(c2cc(F)c(Cl)c(Cl)c2F)C(F)(F)F)cc2cc(C(=O)NC3(C(N)=S)CC3)c(Cl)cc21 (centres unmarked) [I-27] | 100% | 100% | 100% | 100% | 100% | 100% |  |  | 4.28 | 100% |  |  |  | 
12 | CCn1c(C(=O)NC(c2cc(F)c(Cl)c(F)c2F)C(F)(F)F)cc2cc(C(=O)NC3(C(N)=S)CC3)c(Cl)cc21 (centres unmarked) [I-31] | 100% | 100% | 100% | 100% | 100% | 100% |  |  | 4.02 | 100% |  |  |  | 
